These results are taken from patent EP0114750A2, “Beta-lactam antibacterial agents” (BEECHAM GROUP PLC, priority 1983, dated 1984).

Structures can show the parent of a compound that is named as a salt. Where two headings read alike, the source gives them in different places.

In the test the test system is P. mirabilis 889. Briefly: MIC, antibacterial activity. It counts as cell-based. To be noted: Proteus mirabilis.

What is called MIC is the lowest concentration that inhibits growth of the organism. With `CCN1CCN(C(=O)N[C@@H](C(=O)N[C@]2(NC=O)C(=O)N3C(C(=O)O)=C(CSc4nnnn4CC(N)=O)CS[C@@H]32)c2ccccc2)C(=O)C1=O` [Example 13, 3-[1-carbamoylmethyl-1H-tetrazol-5-yl)thiomethyl]-7β-[2-[(4-ethyl-2,3-dioxopiperazin-1-yl)-carbonylamino]-2-phenyl-acetamido]-7a-formamidoceph-3-em-4-carboxylic acid, sodium salt], the MIC (strain P. mirabilis 889, read-out: MIC against P. mirabilis 889) was determined as 0.12 µg/mL.
With `CCN1CCN(C(=O)N[C@@H](C(=O)N[C@]2(NC=O)C(=O)N3C(C(=O)O)=C(CSc4nnnn4CC(N)=O)CS[C@@H]32)c2ccc(OC(C)=O)c(OC(C)=O)c2)C(=O)C1=O` [Example 14, Sodium 3-[(1-carbamoylmethyl-1H-tetrazol-5-yl)thiomethyl]-7β-[D-2-(3,4-diacetoxyphenyl)-2-[(4-ethyl-2,3-dioxopiperazin-1-yl)carbonylamino]acetamido)-7α-formamidoceph-3-em-4-carboxylate], under “889, strain number not given, read-out: MIC against P.mirabilis”, the MIC was determined as 0.12 µg/mL.
